Measured values published in PMC1253704, “Nitromusk and Polycyclic Musk Compounds as Long-Term Inhibitors of Cellular Xenobiotic Defense Systems Mediated by Multidrug Transporters” (Environmental Health Perspectives, 2004).
Read-outs that look alike come from different tables or passages of the source. Marks after values point to notes of the source that are not given here.

Key:
[1] = target: T1, efflux transporters in mussel gills (MXR transporters) (Mytilus californianus, UniProt B2WTH9); assay: Competitive substrate/transporter inhibition assay: rhodamine B accumulation in mussel gill tissue disks; type: cell-based; conditions: concentration causing 10% of maximal inhibition; mean ± SD; probit regression; 1 μM rhodamine B, 90 min, 15°C
T1 sequence (B2WTH9 1-1311): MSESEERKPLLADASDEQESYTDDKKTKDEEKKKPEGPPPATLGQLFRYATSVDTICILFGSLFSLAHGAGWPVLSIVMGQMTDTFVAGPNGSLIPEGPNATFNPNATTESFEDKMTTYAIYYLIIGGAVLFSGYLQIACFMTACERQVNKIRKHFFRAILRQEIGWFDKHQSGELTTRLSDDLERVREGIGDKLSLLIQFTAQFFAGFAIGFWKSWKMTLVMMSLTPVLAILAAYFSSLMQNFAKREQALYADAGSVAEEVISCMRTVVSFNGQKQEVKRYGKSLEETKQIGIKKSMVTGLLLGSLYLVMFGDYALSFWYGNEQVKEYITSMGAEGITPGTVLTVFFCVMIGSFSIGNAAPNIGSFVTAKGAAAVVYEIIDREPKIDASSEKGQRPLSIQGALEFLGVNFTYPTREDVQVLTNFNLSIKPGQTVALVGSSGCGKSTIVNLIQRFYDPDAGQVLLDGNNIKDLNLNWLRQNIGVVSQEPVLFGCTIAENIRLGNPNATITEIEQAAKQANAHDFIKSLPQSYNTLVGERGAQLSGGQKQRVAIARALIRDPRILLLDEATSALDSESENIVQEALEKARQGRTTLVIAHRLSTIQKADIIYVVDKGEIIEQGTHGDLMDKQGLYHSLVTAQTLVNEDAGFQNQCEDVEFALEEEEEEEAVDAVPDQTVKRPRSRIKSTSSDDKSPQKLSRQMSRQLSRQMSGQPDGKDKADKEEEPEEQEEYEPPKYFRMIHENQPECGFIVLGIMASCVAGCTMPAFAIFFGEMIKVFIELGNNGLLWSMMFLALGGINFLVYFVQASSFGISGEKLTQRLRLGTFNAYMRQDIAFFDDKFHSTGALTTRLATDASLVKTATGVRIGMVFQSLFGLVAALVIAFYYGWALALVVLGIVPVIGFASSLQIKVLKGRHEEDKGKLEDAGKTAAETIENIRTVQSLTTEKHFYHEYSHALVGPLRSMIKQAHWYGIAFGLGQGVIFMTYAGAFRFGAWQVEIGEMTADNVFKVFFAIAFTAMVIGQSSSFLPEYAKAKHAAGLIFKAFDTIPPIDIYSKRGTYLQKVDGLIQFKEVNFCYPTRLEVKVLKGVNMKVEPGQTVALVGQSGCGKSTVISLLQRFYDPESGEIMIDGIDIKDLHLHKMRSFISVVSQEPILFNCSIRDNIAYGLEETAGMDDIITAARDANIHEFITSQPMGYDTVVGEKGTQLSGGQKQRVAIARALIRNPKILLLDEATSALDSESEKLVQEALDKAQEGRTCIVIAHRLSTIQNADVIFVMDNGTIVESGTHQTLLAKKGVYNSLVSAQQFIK
Method: The fluorescent dye rhodamine B was used as an indicator of efflux transporter activity. […] Test solutions were prepared in FSW with 1 μM rhodamine B. Stocks of the test compounds dissolved in ethanol were added to FSW to the desired concentrations, and all solutions were adjusted to 1% ethanol along with an ethanol control. […] Incubations were performed in glass petri dishes (diameter, 5 cm) in a volume of 10 mL.
(§1) Gill tissue disks were incubated in test solutions with gentle rocking for 90 min at 15°C in the dark (n = 2–5 tissue disks per dish). After exposure, the tissue disks were briefly washed twice in FSW to remove external rhodamine B, frozen on dry ice or in liquid nitrogen, and stored at −20°C in the dark. […] The sonicates were then centrifuged at 13,000g for 5 min, and the supernatant was transferred to black 96-well microplates (Packard Instrument Co., Meriden, CT). The amount of dye in the supernatant was determined with a fluorescence microplate reader (Packard FluoroCount; […]). Rhodamine B extracts were kept dark and on ice at all times. At each reading, background fluorescence was determined with pure n-butanol and subtracted from each value.
(§2) Transport activities in treated gill disks were normalized relative to nontreated controls that were run for each individual. The ratios, which indicate relative increases in fluorescence, were used as a measure of inhibition by each compound at the specified concentrations. […] IC10 and IC50 values were determined by probit analysis using a macro program for Microsoft Excel written by J. Greve (Fraunhofer-Institut für Umweltchemie und Ökotoxikologie, Schmallenberg, Germany).

[2] = test system: efflux transporters in mussel gills (MXR transporters); assay: Long-term inhibition: transporter activity assay after 2 hr exposure and 0, 24, 48 hr washing in FSW; type: cell-based, Mytilus californianus; conditions: 1 μM test compound 2 hr
Method: as §1
(§3) To examine the duration of inhibitory effects after exposure to test compounds, six to nine gill tissue disks were incubated with 1 μM of test compounds for 2 hr. Transporter activity was then assayed in one-third of the disks immediately after exposure and in the others after 24 hr and 48 hr of washing in fresh FSW (50 mL). FSW was changed after 24 hr. During exposure and washing, dishes were gently rocked at 15°C in the dark. The transporter activity assay was performed with 1 μM rhodamine B as described above.
as §2

[3] = cited from earlier work
[4] = target: T1, efflux transporters in mussel gills (MXR transporters); assay: Long-term inhibition: transporter activity assay after 2 hr exposure and 0, 24, 48 hr washing in FSW; type: cell-based; conditions: 1 μM test compound 2 hr
Method: as §1, §3, §2

[5] = design: method as in Käfferlein et al. 1998; conditions: ref Käfferlein et al. 1998, cited from earlier work
[6] = after 24 hr of washing, paired t-test p < 0.05

In the case of `CC(=O)c1cc(C(C)(C)C)cc2c1CCC2(C)C` [ADBI, 4-Acetyl-1,1-dimethyl-6-tert-butylindane], the IC10 [1] is reported as 390 ± 340 nM, the “continuing inhibition of transporter activity, treatment versus control (in words)” value [2, 6] is reported as “clear trends of increased rhodamine levels” and the “continuing inhibition of transporter activity, treatment versus control (in words)” value ([2]; after 48 hr of washing) is reported as “trend of reduced activity”. For the same compound, the “Log Kow” value ([3]; ref Balk et al. (2001)) was 5.9^a.

For `CC(=O)c1cc2c(cc1C)C(C)(C)C(C)C2C(C)C` (centres unmarked) [ATII, 5-Acetyl-1,1,2,6-tetramethyl-3-isopropylindane], the IC10 [1] was 320 ± 40 nM, the “continuing inhibition of transporter activity, treatment versus control (in words)” value [2, 6] was “significant” and the “continuing inhibition of transporter activity, treatment versus control (in words)” value ([2]; after 48 hr of washing) was “complete recovery”. For the same compound, the “Log Kow” value ([3]; ref Balk et al. (2001)) was 6.3^a.

For `CC1COCc2cc3c(cc21)C(C)(C)C(C)C3(C)C` (centres unmarked) [HHCB, 1,3,4,6,7,8-Hexahydro-4,6,6,7,8,8-hexamethyl-cyclopenta-γ-[2]-benzopyran], the IC10 [1] was 370 ± 160 nM, the “continuing inhibition of transporter activity, treatment versus control (in words)” value [2, 6] was “significant” and the “continuing inhibition of transporter activity, treatment versus control (in words)” value ([2]; after 48 hr of washing) was “trend of reduced activity”. For the same compound, the “Log Kow” value ([3]; ref Balk et al. (2001)) was 5.9^a.

For `CC(=O)c1c(C)c([N+](=O)[O-])c(C(C)(C)C)c([N+](=O)[O-])c1C` [MK, 1-tert-Butyl-3,5-dimethyl-2,6-dinitro-4-acetylbenzene], the IC10 [1] was 90 ± 120 nM, the “continuing inhibition of transporter activity, treatment versus control (in words)” value [2, 6] was “clear trends of increased rhodamine levels” and the “continuing inhibition of transporter activity, treatment versus control (in words)” value ([2]; after 48 hr of washing) was “trend of reduced activity”. For the same compound, the “Log Kow” value ([3]; ref Balk et al. (2001)) was 4.3^a.

For `Cc1c([N+](=O)[O-])c(C)c([N+](=O)[O-])c(C(C)(C)C)c1[N+](=O)[O-]` [MX, 1-tert-Butyl-3,5-dimethyl-2,4,6-trinitrobenzene], the IC10 [1] was 140 ± 120 nM, the “continuing inhibition of transporter activity, treatment versus control (in words)” value [4, 6] was “significant” and the “continuing inhibition of transporter activity, treatment versus control (in words)” value ([4]; after 48 hr of washing) was “trend of reduced activity”. The “Log Kow” value ([3]; ref Balk et al. (2001)) was 4.9^a, the “Concentrations found in blood plasma” value ([5]; human blood plasma) was “nanomolar range” and the “Concentrations found in body fat and breast milk” value ([5]; human body fat and breast milk) was 0.2 to 0.3 µmol/kg.

For `CCN(CC)c1ccc2c(-c3ccccc3C(=O)O)c3ccc(=[N+](CC)CC)cc-3oc2c1` [Rhodamine B, reference compound], the “Log Kow” value ([3]; ref Liu (2004)) is listed as 1.5^c.
